Data: publication PMC9312206, “Atto488-Agitoxin 2—A Fluorescent Ligand with Increased Selectivity for Kv1.3 Channel Binding Site” (Bioengineering, 2022)
Entries after “also recorded” stand apart in the source; their conditions may differ. Like-named read-outs stand apart in the source and are kept apart here.

Columns and labels:
[1] = system: KcsA–Kv1.3 (Kv1.3 binding site); assay: Competitive binding: displacement of A-AgTx2 from KcsA–Kv1.3 on E. coli spheroplasts; details: 1 h at 37 °C, pH 8.0; for displacement of A-AgTx2 from complexes with KcsA–Kv1.3 by peptide blockers (in words): tested AgTx2 0.4–50 nM, KTx1 0.04–2.5 nM, ChTx 10 nM, averaged over 3 independent experiments; for Kd: competition with A-AgTx2 10 nM, Kap = IC50/(1 + [L]/[Kd]), mean ± SEM, three independent measurements, read-out: apparent dissociation constant (Kap)
Description: (§1) E. coli spheroplasts expressing KcsA or chimeric KcsA–Kv1.x (x = 1, 3, 6) channels were prepared according to the previously developed protocol. Briefly, E. coli BL21 (DE3) cells (Novagen, Merck, Darmstadt, Germany), transformed either with the pET28a-KcsA, the pET28a-KcsA–Kv1.1, or the pET28a-KcsA–Kv1.3 plasmid, were cultivated in a minimal M9 medium at 37 °C up to OD560 = 0.8 optical units per cm (o.u./cm), induced with 50 μM isopropyl β-D-1-thiogalactopyranoside, and further grown at 37 °C for 20 h. The cells transformed with pET28a-KcsA–Kv1.6 were grown at 25 °C for 28 h after induction. To prepare the spheroplasts, cells were harvested by centrifugation (5000× g, 10 min, 4 °C), incubated in buffer A (10 mM Tris–HCl, pH 8.0, 0.5 M sucrose) containing lysozyme (20 μg/mL) for 7 min on ice, then diluted twofold with buffer B (10 mM Tris–HCl, pH 8.0, 0.3 mM ethylenediamine tetraacetic acid) and further incubated for 20 min. Finally, the spheroplasts (OD560 ≈ 0.5 o.u./cm) were stabilized by the addition of MgCl2 (10 mM) and stored at 4 °C.
(§2) All the experiments were performed in a buffer containing 50 mM Tris-HCl (pH 8.0), 4 mM KCl, 50 mM NaCl, 10 mM MgCl2, 0.3 mM EDTA, 250 mM sucrose, and 0.1% bovine serum albumin. In the binding experiments, the spheroplasts (1000 cells/μL) were incubated with different concentrations of A-AgTx2 (0.16–20 or 100 nM) or AgTx2-GFP (4 or 50 nM) for 1 h at 37 °C. In the competitive binding experiments, the spheroplasts were incubated with A-AgTx2 (10 nM) and with one of the following compounds for 1 h at 37 °C: AgTx2 (0.4–50 nM), KTx1 (0.04–2.5 nM), ChTx (10 nM), ScyTx (5 µM), tetraethylammonium (TEA, 10 mM).
(§3) After incubation with ligands, the spheroplasts were placed in a 12-well flexiPERM silicon chamber (Perbio, Aalst, Belgium) attached to a thin (0.15 mm) cover glass and were centrifuged at 200× g for 5 min to immobilize the spheroplasts to a cover glass. The microscopy studies were carried out with a laser scanning confocal microscope LSM 710 (Zeiss, Oberkochen, Germany) using the α Plan-Apochromat 100×/1.46 oil immersion objective. Fluorescence of A-AgTx2 and AgTx2-GFP was excited at the 488 nm wavelength and recorded in the 495–590 nm range, at a 0.25 μm lateral and ca. 1.5 μm axial resolution. Image J software (National Institutes of Health, Bethesda, MD, USA) was used to treat the images and define the fluorescence intensity of the ligand bound to each measured spheroplast and the average fluorescence intensity Ia of the bound fluorescent ligand (mean ± SEM, n = 130–230 cells per point).
The apparent dissociation constant (Kap) of non-labeled ligands (AgTx2, KTx1) was calculated using the data of competition binding experiments according to the procedure described elsewhere with the following equation: Kap = IC50/(1 + [L]/[Kd])(2) where [L] is a concentration of A-AgTx2 (10 nM), IC50 is the concentration of a non-labeled ligand that displaces 50% of A-AgTx2 from the complex with KcsA–Kv1.3. Kap was introduced instead of Kd to emphasize an indirect method (the competitive binding experiment) for its determination.
(§4) The Kd and Kap values from three independent measurements were averaged and presented as mean ± SEM.

[2] = system: KcsA–Kv1.3 (Kv1.3 binding site); assay: Direct binding of fluorescent ligand to hybrid KcsA–Kv1.3 on E. coli spheroplasts, confocal microscopy
Description: as §1, with “°C. To obtain spheroplasts from non-transformed cells, E. coli BL21 (DE3) cells were subjected to similar growth, induction, and treatment procedures.” for “°C.”
as §2, §3
The dissociation constants (Kd) of complexes between A-AgTx2 and KcsA–Kv1.3 were defined by fitting the experimental dependencies of Ia onto the concentration L of A-AgTx2 with the following equation:Ia ([L]) = Ias [L]/(Kd + [L])(1) where Ias is the Ia value when the A-AgTx2 binding is saturated.
as §4

[3] = system: KcsA–Kv1.1 (Kv1.1 binding site); assay: Direct binding of fluorescent ligand to hybrid KcsA–Kv1.1 on E. coli spheroplasts, confocal microscopy; details: A-AgTx2 100 nM, 1 h at 37 °C, pH 8.0
Description: (§5) E. coli spheroplasts expressing KcsA or chimeric KcsA–Kv1.x (x = 1, 3, 6) channels were prepared according to the previously developed protocol. Briefly, E. coli BL21 (DE3) cells (Novagen, Merck, Darmstadt, Germany), transformed either with the pET28a-KcsA, the pET28a-KcsA–Kv1.1, or the pET28a-KcsA–Kv1.3 plasmid, were cultivated in a minimal M9 medium at 37 °C up to OD560 = 0.8 optical units per cm (o.u./cm), induced with 50 μM isopropyl β-D-1-thiogalactopyranoside, and further grown at 37 °C for 20 h. The cells transformed with pET28a-KcsA–Kv1.6 were grown at 25 °C for 28 h after induction. […]
as §3, with “The microscopy studies were carried out with a laser scanning confocal microscope LSM 710 (Zeiss, Oberkochen, Germany) using the α Plan-Apochromat 100×/1.46 oil immersion objective.” left out

[4] = system: KcsA–Kv1.6 (Kv1.6 binding site); assay: Direct binding of fluorescent ligand to hybrid KcsA–Kv1.6 on E. coli spheroplasts, confocal microscopy; details: A-AgTx2 100 nM, 1 h at 37 °C, pH 8.0
Description: as §5
as §3, with “The microscopy studies were carried out with a laser scanning confocal microscope LSM 710 (Zeiss, Oberkochen, Germany) using the α Plan-Apochromat 100×/1.46 oil immersion objective.” left out

KcsA = assay: Direct binding of fluorescent ligand to control spheroplasts expressing KcsA; details: A-AgTx2 100 nM
Description: as §5
as §3, with “The microscopy studies were carried out with a laser scanning confocal microscope LSM 710 (Zeiss, Oberkochen, Germany) using the α Plan-Apochromat 100×/1.46 oil immersion objective.” left out

[5] = system: spheroplasts prepared from non-transformed cells; assay: Direct binding of fluorescent ligand to control spheroplasts from non-transformed cells (plasma membrane); set-up: species or system E. coli BL21 (DE3); details: A-AgTx2 100 nM
Description: as §5
as §3, with “The microscopy studies were carried out with a laser scanning confocal microscope LSM 710 (Zeiss, Oberkochen, Germany) using the α Plan-Apochromat 100×/1.46 oil immersion objective.” left out

KcsA–Kv1.3 = details: estimated previously; ref [15]; read-out: apparent dissociation constant, KcsA–Kv1.3-bearing spheroplasts and GFP-tagged AgTx2 ligand; cited from earlier work
Description: Since the bioengineering system based on KcsA–Kv1.3-bearing spheroplasts is suitable for the quantitative analysis of the affinity of unlabeled pore blockers by measuring the competitive binding of the fluorescent ligand and the compound under study, we tested A-AgTx2 in such an analysis (Figure 4C). […] The concentrations of AgTx2 and KTx1 displacing 50% of A-AgTx2, which were determined from the measured dependences, made it possible to calculate the apparent dis ...

Kv1.3 channel [6] = details: read-out: Kd, electrophysiological studies, cited from earlier work
Kv1.1 channel = details: cited from earlier work
Excerpt: (§6) Differences between two labeled derivatives include the position of a label (carboxytetramehylrhodamine was located at the C-terminus of AgTx2 [11]), the number of charges, and the total charge at the labels. Atto488 bears two negatively and one positively charged groups (Figure 1C), while carboxytetramehylrhodamine bears one negative charge and one positive charge. It can be s ... || (+ 1 further places)

Kv1.6 channel = details: cited from earlier work
Excerpt: as §6

Kv1.3 channel [7] = details: cited from earlier work
Excerpt: High-affinity and genetically ... || Interactions of A-AgTx2 with the Kv1.3 binding site were further characterized using known small organic molecule (TEA) and peptide blockers (ChTx, KTx1, AgTx2) of the Kv1.3 channel.

Shaker K^+ channel = details: ref [1]; cited from earlier work
Excerpt: The toxin contains a triple-stranded antiparallel β-sheet with two outer strands—S1 (Val2-Cys8) and S2 (Arg24-Met29)—and the central strand S3 (Lys32—Thr ...

KCa2.1 channel = details: ref [18]; cited from earlier work
KCa2.2 channel = details: ref [18]; cited from earlier work
KCa2.3 channel = details: ref [18]; cited from earlier work

Compound: CC[N+](CC)(CC)CC [TEA, tetraethylammonium]
- displacement of A-AgTx2 from complexes with KcsA–Kv1.3 by TEA (in words) ([1]; A-AgTx2 10 nM, TEA 10 mM): accomplished this at millimolar concentrations

Compound: Atto488-agitoxin 2 [A-AgTx2]
- affinity for the Kv1.3 binding site compared to the unlabeled AgTx2 (in words) [2]: decreased as compared to the unlabeled AgTx2
- binding of A-AgTx2 to spheroplasts expressing KcsA–Kv1.3 (in words) ([2]; A-AgTx2 20 nM, 1 h at 37 °C, pH 8.0): effectively binds to spheroplasts expressing KcsA–Kv1.3
- Kd ([2]; A-AgTx2 0.16–20 nM, 1 h at 37 °C, pH 8.0, 4 mM KCl, 50 mM NaCl, 0.1% BSA, mean ± SEM, n = 3, read-out: dissociation constant (Kd) of complexes with KcsA–Kv1.3): 3.9 ± 0.2 nM
- intensity of fluorescence detected from KcsA–Kv1.3-bearing spheroplasts relative to control spheroplasts (higher than) ([2]; A-AgTx2, control: spheroplasts expressing KcsA or not expressing heterologous channels, difference preserved with controls at fivefold higher A-AgTx2 concentration): fifty
- selectivity toward Kv1.3 as compared to the Kv1.1 and Kv1.6 binding sites (in words) ([2]; in contrast to non-modified AgTx2): considerably increased selectivity toward Kv1.3
- binding of A-AgTx2 to KcsA–Kv1.1 / Kv1.1 binding site (in words) [3]: lose affinity for the Kv1.1 and Kv1.6 binding sites; also recorded: does not stain spheroplasts presenting KcsA–Kv1.1 or KcsA–Kv1.6; also recorded: inability of A-AgTx2 to interact with the Kv1.1 and Kv1.6 binding sites
- binding of A-AgTx2 to KcsA–Kv1.6 / Kv1.6 binding site (in words) [4]: lose affinity for the Kv1.1 and Kv1.6 binding sites; also recorded: does not stain spheroplasts presenting KcsA–Kv1.1 or KcsA–Kv1.6; also recorded: inability of A-AgTx2 to interact with the Kv1.1 and Kv1.6 binding sites
- non-specific ligand binding to the KcsA channel scaffold (in words) (KcsA): very low
- non-specific ligand binding to plasma membrane (in words) [5]: very low

Compound: kaliotoxin-1 [KTx1]
- displacement of A-AgTx2 from complexes with KcsA–Kv1.3 by peptide blockers (in words) ([1]; A-AgTx2 10 nM): displaced A-AgTx2 from the complexes with KcsA–Kv1.3 at nanomolar concentrations
- Kd [1]: 0.06 ± 0.02 nM
- Kd (KcsA–Kv1.3): 0.1 nM
- Kd (Kv1.3 channel [6]; ref [20]): 0.1 nM

Compound: agitoxin 2 [AgTx2]
- displacement of A-AgTx2 from complexes with KcsA–Kv1.3 by peptide blockers (in words) ([1]; A-AgTx2 10 nM): displaced A-AgTx2 from the complexes with KcsA–Kv1.3 at nanomolar concentrations
- Kd [1]: 0.54 ± 0.11 nM
- Kd (KcsA–Kv1.3): 0.23 nM
- Kd (Kv1.3 channel [6]; ref [19]): 2 nM
- inhibition of Kv1.1 (in words) (Kv1.1 channel; mammalian channel, ref [1]): high-affinity inhibitor
- inhibition of Kv1.6 (in words) (Kv1.6 channel; mammalian channel, ref [1]): high-affinity inhibitor
- inhibition of Kv1.3 (in words) (Kv1.3 channel [7]; mammalian channel, ref [1]): high-affinity inhibitor
- inhibition of Shaker K^+ channel (in words) (Shaker K^+ channel): high-affinity inhibitor

Compound: R-AgTx2: AgTx2 labeled with carboxytetramethylrhodamine at Lys38
- affinity for Kv1.1 binding site (in words) (Kv1.1 channel; ref [11],[12],[13]): nanomolar affinity
- affinity for Kv1.6 binding site (in words) (Kv1.6 channel; ref [11],[12],[13]): nanomolar affinity
- affinity for Kv1.3 binding site (in words) (Kv1.3 channel [7]; ref [11],[12],[13]): nanomolar affinity

Compound: charybdotoxin [ChTx]
- displacement of A-AgTx2 from complexes with KcsA–Kv1.3 by peptide blockers (in words) ([1]; A-AgTx2 10 nM): displaced A-AgTx2 from the complexes with KcsA–Kv1.3 at nanomolar concentrations

Compound: scyllatoxin (AFCNLRMCQLSCRSLGLLGKCIGDKCECVKH; UniProt P16341 1-31, looked up) [ScyTx]
- displacement of A-AgTx2 from complexes with KcsA–Kv1.3 by control peptide (in words) ([1]; A-AgTx2 10 nM, ScyTx 5 µM): did not disturb the complexes of A-AgTx2 with KcsA–Kv1.3
- interaction with Kv1.3 (in words) (Kv1.3 channel [7]; stated as known, ref [18]): does not interact with Kv1.3
- block of KCa2.1 (in words) (KCa2.1 channel): blocks the KCa2.1, KCa2.2, and KCa2.3 channels
- block of KCa2.2 (in words) (KCa2.2 channel): blocks the KCa2.1, KCa2.2, and KCa2.3 channels
- block of KCa2.3 (in words) (KCa2.3 channel): blocks the KCa2.1, KCa2.2, and KCa2.3 channels
